The values below come from publication PMC6367500, “18β-glycyrrhetyl-3-O-sulfate would be a causative agent of licorice-induced pseudoaldosteronism” (Scientific Reports, 2019).

Data set [1] deals with anti-3MGA-mAb. Briefly: Competitive ELISA using anti-3MGA-mAb. Conditions: specificity to 3MGA calibrated to 100%, n = 1. The class given is binding. The method, then: (§1) Figure 5 Dot-blot analysis and ELISA detection range of GL metabolites using anti-3MGA-monoclonal antibody (mAb). GL metabolites (1 µg each) were spotted on a PES membrane, and colored using an anti-3MGA-mAb (A). Competitive ELISA using anti-3MGA-mAb for GL metabolites was performed. Data are represented from a single analysis (n = 1) (B). […] Data are represented as mean ± S.D. (n = 3). Two-way ANOVA indicated a significant difference between GA and 3 (F1,36 = 4441, P < 0.001), concentrations (F8,36 = 315, P < 0.001), and their interactions (F8,36 = 281, P < 0.001). The calibrated line for the absorbance-concentration profile of 3 was calculated by the linear least-squares method, and the regression formula is shown in graph (C).
When the specificity of the mAb to 3MGA was calibrated to 100%, the cross-reactivity for GL, GA, 1, 2, and 3 was 0.23%, 2.2%, 4.8%, 4.0%, and 23%, respectively. […] We confirmed the selectivity of the anti-3MGA-mAb in discriminating between 3 and GA and established the detectable measurement range for 3 in this ELISA system.
3MGA-HSA (1 µg/ml in 50 mM carbonate buffer, pH 9.6) was added into a 96-well plate (Nagel Nunc, Penfield, NY, USA) (100 µl in a well) and incubated at 37 °C for 1 h. After the removal of 3MGA-HSA, the wells were washed three times with T-PBS (200 µl in a well). The wells were incubated with 300 µl in a well of 5% skim milk at 4 °C overnight. After the wells had been washed with T-PBS three times, the sample solution diluted with Can Get Signal® Solution 1 (Toyobo Co., Ltd., Osaka, Japan) (50 µl in a well) and anti-3MGA-mAb (1:4,000 dilution with Can Get Signal® Solution 1) (50 µl in a well) were added to the wells, and the plate was incubated at 37 °C for 1 h. After the wells had been washed with T-PBS three times, HRP-labeled goat anti-mouse IgG (Fc specific) antibody (Sigma, 1:20,000 dilution with Can Get Signal® Solution 2) was added into the wells (100 µl in a well) and the plate was incubated at 37 °C for 1 h. Next, the wells were washed with T-PBS three times and the substrate solution (3,3′,5,5′-tetramethylbensidine, TMB solution; Fujifilm Wako Pure Chemical Corporation, Osaka, Japan) was added to the wells (100 µl in a well), followed by incubation at room temperature for 5 min. Then, the stop solution (0.5 M sulfuric acid) was added to the wells (100 µl in a well) and the optical density was measured at 450 nm/630 nm.

Data set [2] relates to anti-3MGA-mAb. Briefly: Dot-blot analysis using anti-3MGA-mAb. The class given is binding. The note with it: 1 µg spotted on PES membrane, imaging analysis. The method, then:
We confirmed the cross-reactivity of anti-3MGA-mAb against these GL metabolites. GL, GA, 3MGA, and compounds 1, 2, and 3 (1 µg each) were spotted on a polyethersulfone (PES) membrane, fixed onto the membrane, and colored using an anti-3MGA-mAb (Fig. 5A). […] Thus, the anti-3MGA-mAb cross-reacted to some extent with other metabolites of GL.
as §1
Anti-3MGA-mAb and 3MGA-human serum albumin (HSA)-conjugate were developed by the same protocols established in our previous studies[22],[23]. GL, GA, 3MGA, 1, 2, and 3 (1 µg each) were spotted on a Mustang^TM E positively charged PES membrane (Pall Co., East Hills, NY, USA). The membrane was then immersed into 0.1 M MES buffer (pH 4.7) containing 2% EDC and 1% NHS, and kept at room temperature for 1 h to activate the carboxyl group. After washing with distilled water, PBS containing 1% bovine serum albumin (BSA) was added to the membrane, which was shaken at room temperature for 2 h for fixation. Next, the membrane was blocked with PBS containing 5% skim milk (Morinaga-milk, Tokyo, Japan) and 0.1% Tween 20 at 4 °C overnight to reduce nonspecific adsorption. After washing twice with PBS containing 0.1% Tween 20 (T-PBS) for 5 min, the membrane was incubated with anti-3MGA-mAb and kept at room temperature for 3 h with constant agitation. The membrane was then washed twice with T-PBS for 5 min and treated with 1:500 diluted horseradish peroxidase (HRP)-labeled goat anti-mouse IgG (whole molecule; Sigma, St. Louis, MO, USA) antibody in T-PBS for 1 h with gentle shaking. Finally, the membrane was washed twice with T-PBS and once with PBS, and exposed to 1 mg/ml of freshly prepared 4-chloro-1-naphthol-0.03% H2O2 in PBS for 15 min at room temperature. The reaction was stopped by washing with distilled water, and the immunostained PES membrane was allowed to dry and then photographed. The positively stained areas were measured using Image J 1.46r (http://imageJ.nih.gov/ij).

A short description of data set [3]: Concentrations of GL metabolites in plasma of a patient with pseudoaldosteronism (LC-MS/MS). In kind it is in vivo, human. The source says:
The patient was a person who had taken a Kampo formula containing licorice for 3 years (1.5 g of licorice for 1 year and 2 months, and 3 g for 1 year and 10 months). On day 0, we found a low plasma potassium level (2.1 mEq/l) and a high creatinine kinase level (364 U/l). Since low plasma renin activity and a low aldosterone level were also found, the patient was diagnosed with pseudoaldosteronism due to licorice. The administration of the Kampo formula was stopped and potassium supplementation of up to 100 mEq/day was started. In the plasma collected on day 0, we detected compound 3 at 8.6 µM, GA at 1.3 µM, and 2 at 87 nM, while 1, GL and 3MGA were not detected. On day 5, the plasma potassium level was still 2.1 mEq/l and potassium supplementation was continued. However, the plasma concentrations of 3 and GA had decreased to 3.6 µM and 0.65 µM, respectively. 2, 1, GL, and 3MGA were not detected. On day 13, the plasma potassium level was increased to 2.8 mEq/l, and the concentrations of 3 and GA were 61 nM and 11 nM, respectively. On day 14, the plasma potassium level was 3.4 mEq/l, and the concentration of 3 was 57 nM; GA was not detected. On day 18, the plasma potassium level had recovered to a normal level (4.9 mEq/l), so potassium supplementation was stopped.
Female SD rats or EHBRs (9-week-old) were anesthetized by an intraperitoneal (i.p.) injection of urethane (1 g/kg) and their jugular veins were exposed. GA suspended in 0.5% CMC was then administered orally (200 mg/kg) to the unconscious rats, and blood samples were collected from the jugular vein; urine samples were collected using a metabolic cage at an appropriate time over a 12-h period. […] Feces were homogenized in phosphate-buffered saline (PBS; 0.15 M, pH 7.2), centrifuged (1.2 × 10^4 g, 10 min), and the supernatants were collected. After 1 week as a washout period, female SD rats were anesthetized by an i.p. injection of urethane (1 g/kg) and their biliary tract was cannulated. GA (0.2 mg/kg) was injected into the jugular vein, and the bile was collected every hour for 4 h. Aliquots (10 µl) of plasma, urine, homogenate of feces, or bile were mixed with 20 µl of subtilisin (0.91 U/ml) and incubated at 37 °C for 30 min, followed by the addition of 70 µl of astragaloside IV solution (1 µg/ml in ethanol containing 0.5% formic acid, used as internal standard), and kept at −20 °C for 30 min. […] The transitions (precursor to daughter) monitored and retention times were as follows: ESI(+) 743.4 to 567.5 m/z for compound 1 (5.5 min), ESI(−) 565.5 to 96.5 m/z for 2 (6.2 min), ESI(−) 549.5 to 96.5 m/z for 3 (8.1 min), ESI(+) 647.6 to 453.6 m/z for 3MGA (9.2 min), ESI(+) 471.3 to 91.0 m/z for GA (8.8 min), ESI(+) 823.5 to 453.6 m/z for GL (10.8 min), and ESI(+) 785.4 to 143.0 m/z for astragaloside IV (3.0 min). Linear regressions over the concentration range of 32 nM to 20 µM for each compound were examined using the peak-area ratio of the compounds to their internal standards and the least-squares method (r^2 > 0.98).
The patient was a person. They provided written informed consent to the use of their blood and urine samples for this study, which was approved by the Independent Ethics Committee of Kameda General Hospital, in accordance with the Declaration of Helsinki. Their anamnesis was follows: hypertension, systemic lupus erythematosus, and antiphospholipid antibody syndrome (for 15 years), necrotic pulmonary aspergillosis (6 years ago), cerebral infarction (14 and 4 years ago, two times), and stomach cancer (3 years ago). After the operation for stomach cancer, the patient had been treated with Kracie Juzentaihoto Extract Granules for Ethical Use (Kracie Pharmaceuticals., Tokyo, Japan). […]

Consider `CC1(C)[C@@H](O[C@H]2O[C@H](C(=O)O)[C@@H](O)[C@H](O)[C@H]2O[C@@H]2O[C@H](C(=O)O)[C@@H](O)[C@H](O)[C@H]2O)CC[C@]2(C)[C@H]3C(=O)C=C4[C@@H]5C[C@@](C)(C(=O)O)CC[C@]5(C)CC[C@@]4(C)[C@]3(C)CC[C@@H]12` [GL, glycyrrhizin, reference compound], for which the “cross-reactivity of anti-3MGA-mAb” value with anti-3MGA-mAb [1] turned out to be 0.23%. The “area of positive staining in dot-blot” value in the data set with anti-3MGA-mAb [2] is “not detectable”. Also, in data set [3] (patient with licorice-induced pseudoaldosteronism, day 0), the “plasma concentration, day 0” value is “not detected”. In addition, in data set [3] (patient, 5 days after stopping the Kampo formula), the “plasma concentration, day 5” value was “not detected”.
